Laboratory results taken from publication PMC5587642, “A Novel Benzocoumarin-Stilbene Hybrid as a DNA ligase I inhibitor with in vitro and in vivo anti-tumor activity in breast cancer models” (Scientific Reports, 2017).

Legend:
MDA-MB-231 cells = assay: Cell cycle distribution analysis (PI, FACS); type: cell-based, human; settings: 12 µM
Procedure: For the study of cell cycle distribution, cells were synchronized by serum starvation for 48 h and then grown in serum containing media in the presence or absence of 12 µM compound 19, after 0, 24 and 48 h, cells were harvested, washed twice with cold PBS and fixed with 70% ethanol. The fixed cells were washed with chilled PBS and then stained with 50 μg/mL of Propidium iodide. Cell cycle distribution was analyzed by using FACS-Calibur (BD Biosciences, San Diago, CA).

[1] = biological target: T1, DNA ligation (hLigI) in MDA-MB-231 cell lysate (Homo sapiens, UniProt P18858); assay: Ex-vivo ligation assay with lysate of treated cells; type: cell-based; settings: MDA-MB-231, treated 48 h
T1 construct: endogenous in cells; host or cells: MDA-MB-231
T1 sequence (P18858 whole entry): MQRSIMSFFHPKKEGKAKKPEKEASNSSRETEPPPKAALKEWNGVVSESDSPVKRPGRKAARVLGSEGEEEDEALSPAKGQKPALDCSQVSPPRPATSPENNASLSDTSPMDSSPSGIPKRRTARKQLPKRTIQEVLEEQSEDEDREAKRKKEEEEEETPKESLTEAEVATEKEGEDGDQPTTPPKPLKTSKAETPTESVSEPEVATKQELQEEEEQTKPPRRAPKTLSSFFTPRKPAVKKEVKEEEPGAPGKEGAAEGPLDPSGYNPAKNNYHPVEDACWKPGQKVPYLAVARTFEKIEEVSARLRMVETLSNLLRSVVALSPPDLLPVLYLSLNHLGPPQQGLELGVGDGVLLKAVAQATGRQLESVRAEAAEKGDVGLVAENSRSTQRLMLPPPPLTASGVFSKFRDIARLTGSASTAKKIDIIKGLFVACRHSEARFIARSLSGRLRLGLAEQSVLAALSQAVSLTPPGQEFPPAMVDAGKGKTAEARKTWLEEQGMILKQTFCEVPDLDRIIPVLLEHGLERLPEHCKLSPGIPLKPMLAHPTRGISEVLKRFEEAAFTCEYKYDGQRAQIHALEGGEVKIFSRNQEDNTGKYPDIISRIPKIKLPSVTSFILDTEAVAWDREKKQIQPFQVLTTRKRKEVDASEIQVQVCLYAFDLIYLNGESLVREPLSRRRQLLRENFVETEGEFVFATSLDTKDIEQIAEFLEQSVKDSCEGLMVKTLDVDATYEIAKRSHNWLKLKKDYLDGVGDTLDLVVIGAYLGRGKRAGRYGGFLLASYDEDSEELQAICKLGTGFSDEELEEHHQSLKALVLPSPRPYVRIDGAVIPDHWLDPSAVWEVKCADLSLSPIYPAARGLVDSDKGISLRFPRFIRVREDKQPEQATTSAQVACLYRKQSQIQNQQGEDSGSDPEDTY
Procedure: Cells (MDA-MB-231) were seeded in 6 well plates and treated either with vehicle control (DMSO) or with different concentrations (6 and 12 µM) of compound 19 for 48 h. After the treatment cell lysate was prepared and western blotting was performed as described previously. Briefly, the cells were lysed by very brief sonication. Sonicated samples were centrifuged and the supernatant was collected and used for ligation assay and western blotting.
The MDA-MB-231 and 4T1 cells were treated with different concentrations of compound 19 for 48h. Cell lysate were prepared as described previously ^6 for the ligation assay. Here we used same DNA substrate which was used in FEN1 flap cleavage assay so that we can check the activity of hLigI and FEN1 proteins in compound 19 treated samples. The reactions were performed as described previously ^6. In the Supplementary Fig. 74 cleaved product remain (25 mer) same. This cleaved product occurs after the cleavage of 25+6 mer oligo by FEN1 protein, since the cleaved product (25 mer) remains same in treated as well as in control samples we can conclude that the compound 19 unable to inhibit the FEN1 protein inside the cells. The cleaved product (25 mer) make a double strand nicked substrate for hLig I protein with 27 mer and 52 mer oligo used in the reaction. hLigI protein gives rise to ligated (52 mer oligo) product after the completion of reaction. […]

PARP1 = PARP1 (Homo sapiens, UniProt P09874); assay: PARP1 activity assay (NAD fluorescence); settings: compound 19 at 5, 10 and 20 µM
Chain of PARP1 (P09874 whole entry): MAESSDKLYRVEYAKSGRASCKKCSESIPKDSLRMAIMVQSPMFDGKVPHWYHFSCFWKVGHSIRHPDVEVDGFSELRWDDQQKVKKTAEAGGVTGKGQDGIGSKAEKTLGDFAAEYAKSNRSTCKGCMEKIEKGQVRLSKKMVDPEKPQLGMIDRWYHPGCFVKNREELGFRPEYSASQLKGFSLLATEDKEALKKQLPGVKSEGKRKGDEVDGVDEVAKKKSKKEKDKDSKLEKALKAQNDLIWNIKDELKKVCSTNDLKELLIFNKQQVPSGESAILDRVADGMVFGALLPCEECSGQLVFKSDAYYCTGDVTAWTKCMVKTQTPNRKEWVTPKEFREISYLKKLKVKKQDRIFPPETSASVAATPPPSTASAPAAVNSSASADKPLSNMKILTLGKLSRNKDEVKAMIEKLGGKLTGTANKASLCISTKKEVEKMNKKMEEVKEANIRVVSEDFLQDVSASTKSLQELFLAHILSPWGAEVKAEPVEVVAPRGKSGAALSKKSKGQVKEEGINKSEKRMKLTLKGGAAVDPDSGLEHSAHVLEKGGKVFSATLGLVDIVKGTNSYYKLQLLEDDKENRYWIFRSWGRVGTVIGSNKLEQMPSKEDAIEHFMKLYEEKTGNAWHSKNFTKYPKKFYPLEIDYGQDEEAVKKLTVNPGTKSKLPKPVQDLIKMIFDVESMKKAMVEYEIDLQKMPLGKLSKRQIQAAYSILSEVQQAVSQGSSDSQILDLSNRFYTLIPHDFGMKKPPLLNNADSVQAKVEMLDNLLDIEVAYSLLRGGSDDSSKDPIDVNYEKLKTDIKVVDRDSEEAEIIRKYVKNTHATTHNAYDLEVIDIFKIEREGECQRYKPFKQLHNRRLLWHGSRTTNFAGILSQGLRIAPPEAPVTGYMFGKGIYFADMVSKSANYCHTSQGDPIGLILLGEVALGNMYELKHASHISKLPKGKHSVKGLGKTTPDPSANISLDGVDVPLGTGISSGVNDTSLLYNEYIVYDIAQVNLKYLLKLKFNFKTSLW
From the text: Human PARP1 full length protein was purified as described previously ^4,5.
Samples were cooled and fluorescence measurement carried out at excitation 360nm and emission range 445nm.

[2] = 0 h (treated and untreated cells)

## COc1cc(/C=C/c2cc(=O)oc3c2ccc2ccccc23)cc(OC)c1 [Compound 19, (E)-4-(3,5-dimethoxystyryl)-2H-benzo[h]chromen-2-one]
MDA-MB-231 cells; [2]
  Cells in G0/G1 phase: 75.12 ± 2.23%
  Cells in G2/M phase: 8.71 ± 1.57%
  Cells in S-phase: 16.18 ± 0.65%
MDA-MB-231 cells; 24 h
  Cells in G0/G1 phase: 57.61 ± 0.1%
  Cells in G2/M phase: 21.48 ± 2.50%
  Cells in S phase: 20.91 ± 2.61%
MDA-MB-231 cells; 48 h
  Cells in G0/G1 phase: 33.78 ± 4.77%
  Cells in G2/M phase: 32.53 ± 0.58%
  Cells in S phase: 33.7 ± 4.2%
[1]
  DNA ligation capacity of lysate of treated cells: reduced capacity for DNA ligation
PARP1
  Inhibition of PARP1 activity: not able to inhibit
